In the supplement of paper PMC11451515:

Tested on: SEM cells
Test: cell viability relative to DMSO control; higher = less cytotoxic
Details: 48 h
In short: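 NOMO1 or SEM (500 cells/well) or P12-Ichikawa (1000 cells/well) leukemia cells were adapted for at least four passages in each medium. They were seeded in 1536-well plates (5 μl) and pin-dosed with library compounds in DMSO over an 11-point threefold series, 47 μM to 0.79 nM. CellTiter-Glo One luminescence was read after 48 h at 37°C. Viability is the per-plate percentage relative to DMSO wells, with cell-free wells as background.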

[1] = HPLM + 10% dialyzed FBS, 0.000781 µM
[2] = HPLM + 10% dialyzed FBS, 0.00234 µM
[3] = HPLM + 10% dialyzed FBS, 0.00702 µM
[4] = HPLM + 10% dialyzed FBS, 0.0211 µM
[5] = HPLM + 10% dialyzed FBS, 0.0632 µM
[6] = HPLM + 10% dialyzed FBS, 0.19 µM
[7] = HPLM + 10% dialyzed FBS, 0.569 µM
[8] = HPLM + 10% dialyzed FBS, 1.71 µM
[9] = HPLM + 10% dialyzed FBS, 5.12 µM
[10] = HPLM + 10% dialyzed FBS, 15.4 µM
[11] = HPLM + 10% dialyzed FBS, 46.1 µM
[12] = RPMI 5 mM glucose + 10% FBS, 0.000781 µM
[13] = RPMI 5 mM glucose + 10% FBS, 0.00234 µM
[14] = RPMI 5 mM glucose + 10% FBS, 0.00702 µM
[15] = RPMI 5 mM glucose + 10% FBS, 0.0211 µM
[16] = RPMI 5 mM glucose + 10% FBS, 0.0632 µM
[17] = RPMI 5 mM glucose + 10% FBS, 0.19 µM
[18] = RPMI 5 mM glucose + 10% FBS, 0.569 µM
[19] = RPMI 5 mM glucose + 10% FBS, 1.71 µM
[20] = RPMI 5 mM glucose + 10% FBS, 5.12 µM
[21] = RPMI 5 mM glucose + 10% FBS, 15.4 µM
[22] = RPMI 5 mM glucose + 10% FBS, 46.1 µM
[23] = RPMI 5 mM glucose + 10% dialyzed FBS, 0.000781 µM
[24] = RPMI 5 mM glucose + 10% dialyzed FBS, 0.00234 µM
[25] = RPMI 5 mM glucose + 10% dialyzed FBS, 0.00702 µM
[26] = RPMI 5 mM glucose + 10% dialyzed FBS, 0.0211 µM
[27] = RPMI 5 mM glucose + 10% dialyzed FBS, 0.0632 µM
[28] = RPMI 5 mM glucose + 10% dialyzed FBS, 0.19 µM
[29] = RPMI 5 mM glucose + 10% dialyzed FBS, 0.569 µM
[30] = RPMI 5 mM glucose + 10% dialyzed FBS, 1.71 µM
[31] = RPMI 5 mM glucose + 10% dialyzed FBS, 5.12 µM
[32] = RPMI 5 mM glucose + 10% dialyzed FBS, 15.4 µM
[33] = RPMI 5 mM glucose + 10% dialyzed FBS, 46.1 µM

Structure (SMILES) | cell viability [1] | cell viability [2] | cell viability [3] | cell viability [4] | cell viability [5] | cell viability [6] | cell viability [7] | cell viability [8] | cell viability [9] | cell viability [10] | cell viability [11] | cell viability [12] | cell viability [13] | cell viability [14] | cell viability [15] | cell viability [16] | cell viability [17] | cell viability [18] | cell viability [19] | cell viability [20] | cell viability [21] | cell viability [22] | cell viability [23] | cell viability [24] | cell viability [25] | cell viability [26] | cell viability [27] | cell viability [28] | cell viability [29] | cell viability [30] | cell viability [31] | cell viability [32] | cell viability [33]
COc1ccc2c(c1)c(CC(=O)OCC(=O)O)c(C)n2C(=O)c1ccc(Cl)cc1 | 109% | 114% | 111% | 110% | 112% | 110% | 119% | 102% | 113% | 109% | 106% | 121% | 126% | 121% | 120% | 113% | 111% | 109% | 99.8% | 113% | 98.4% | 102% | 119% | 131% | 123% | 123% | 116% | 116% | 128% | 110% | 112% | 113% | 100%
CC1=C(CC(=O)O)c2cc(F)ccc2/C1=C\c1ccc([S+](C)[O-])cc1 (centres undefined) | 111% | 121% | 130% | 125% | 127% | 125% | 126% | 109% | 108% | 104% | 76.7% | 96.6% | 86.7% | 98.5% | 95.8% | 90.3% | 106% | 83.6% | 90.7% | 79.6% | 71.9% | 63.4% | 126% | 118% | 119% | 118% | 130% | 115% | 105% | 107% | 95.9% | 99.8% | 74.3%
CC(C)C[C@H](NC(=O)CNC(=O)c1cc(Cl)ccc1Cl)B(O)O | 86.3% | 77.4% | 109% | 19.6% | 107% | 12.5% | 7.52% | 6.82% | 6.78% | 4.58% | 3.36% | 88.4% | 85.9% | 103% | 15.2% | 113% | 11.4% | 7.76% | 5.7% | 4.81% | 3.3% | 2.05% | 83.2% | 68.2% | 90.6% | 16.8% | 107% | 17.6% | 7.97% | 6.58% | 5.53% | 4.01% | 2.9%
COc1cc2nc(-c3cc(F)ccc3O)nc(N[C@@H]3CNC[C@H]3C(C)(C)O)c2cc1OC | 57.3% | 96.4% | 90.5% | 97.4% | 89.5% | 59.6% | 45.6% | 37.2% | 28.3% | 16.1% | 7.01% | 59.9% | 101% | 99.6% | 94.6% | 90.4% | 62.3% | 54.6% | 35.7% | 25.6% | 14.5% | 5.78% | 46.9% | 94.4% | 80.5% | 86.5% | 64% | 45.2% | 34.6% | 30.6% | 15.8% | 14.3% | 6.75%
CN1CCN2c3ncccc3Cc3ccccc3C2C1 (centres undefined) | 115% | 91.6% | 101% | 97.4% | 98.9% | 106% | 22% | 112% | 112% | 89.5% | 101% | 116% | 116% | 108% | 121% | 114% | 129% | 16.9% | 122% | 127% | 111% | 97% | 137% | 116% | 113% | 124% | 134% | 136% | 28.7% | 129% | 126% | 124% | 122%
CN(C)CCOc1ccc(-c2nc(-c3ccncc3)c(-c3ccc4c(c3)CC/C4=N\O)[nH]2)cc1 | 108% | 111% | 106% | 106% | 110% | 101% | 114% | 117% | 112% | 109% | 24.8% | 107% | 104% | 106% | 124% | 123% | 113% | 126% | 114% | 122% | 109% | 19.6% | 115% | 109% | 111% | 113% | 113% | 119% | 125% | 134% | 119% | 115% | 68.5%
COc1cc2nc(N3CCN(C(=O)C4CCCO4)CC3)nc(N)c2cc1OC (centres undefined) | 74.1% | 117% | 97% | 118% | 109% | 117% | 122% | 114% | 116% | 119% | 113% | – | – | – | – | – | – | – | – | – | – | – | 84.6% | 125% | 110% | 124% | 134% | 142% | 27.4% | 134% | 162% | 148% | 128%
NC(=O)c1cccc2nc(-c3ccc([C@H]4CCCN4)cc3F)[nH]c12 | 86.3% | 93.6% | 116% | 113% | 113% | 110% | 109% | 86.9% | 61.6% | 39.8% | 21.8% | 81.3% | 80.4% | 103% | 93.7% | 98.6% | 97.9% | 98.3% | 70.4% | 45.9% | 31.8% | 15.3% | 86.2% | 103% | 111% | 85.7% | 87.8% | 109% | 93.1% | 64.8% | 36.3% | 29.6% | 9%
c1ccc(CNc2nc(N3CCOc4ccccc43)nc3c2CCCC3)cc1 | 87% | 94.6% | 88.7% | 96.9% | 102% | 109% | 93.3% | 106% | 98.5% | 89.9% | 83.2% | 91% | 88.6% | 87% | 89.4% | 101% | 96.2% | 89.5% | 95.9% | 91.4% | 77.7% | 71% | 75% | 91.3% | 96.5% | 96.8% | 95.5% | 103% | 106% | 108% | 94.5% | 82.7% | 82.9%
CCC(=O)N[C@H]1CC[C@H](C(=O)N(C)c2ccc(-c3nc4ccccc4o3)cc2)C1 | 75.9% | 68% | 99.7% | 94.2% | 99.8% | 104% | 101% | 89% | 110% | 115% | 96.4% | 83.3% | 51.8% | 78.4% | 89.5% | 84.7% | 101% | 99.9% | 82.2% | 74.7% | 74.2% | 40% | 91.9% | 51.8% | 83.5% | 98.9% | 98.4% | 97% | 96% | 102% | 94.7% | 91% | 45.3%
COc1ccc([C@@H]2CC(=O)c3c(O)cc(O[C@@H]4O[C@H](CO[C@@H]5O[C@@H](C)[C@H](O)[C@@H](O)[C@H]5O)[C@@H](O)[C@H](O)[C@H]4O)cc3O2)cc1O | 99.2% | 101% | 93.9% | 93.2% | 113% | 48% | 110% | 116% | 125% | 108% | 123% | 105% | 86.6% | 98.4% | 93.4% | 112% | 58.5% | 107% | 91.3% | 107% | 113% | 120% | 112% | 107% | 106% | 114% | 110% | 54.7% | 127% | 114% | 132% | 137% | 119%
COCCOc1nc(-c2ccc(Cl)c(Cl)c2)n(-c2ccc(NC(=O)CCl)cc2)n1 | 85.5% | 95.4% | 87.5% | 103% | 104% | 103% | 94.2% | 97.6% | 83.6% | 83.1% | 84.6% | 80% | 106% | 98.5% | 89.9% | 102% | 85.7% | 95.4% | 88% | 83.4% | 79.1% | 80.6% | 92.2% | 91.4% | 96.4% | 91% | 95.1% | 102% | 94.2% | 81.6% | 80.2% | 80.2% | 85.1%
COC1=CC=C(C=C1O)C/2=C/C(=O)C3=C(O2)C=C(O)C=C3O | 98% | 89.5% | 85.9% | 95.2% | 98.4% | 97.9% | 92.4% | 93.7% | 79.6% | 65.7% | 60.6% | 103% | 95.4% | 113% | 94.3% | 106% | 113% | 110% | 113% | 94.8% | 87.9% | 63.7% | 97.6% | 94.8% | 105% | 104% | 102% | 87.7% | 111% | 119% | 101% | 81.3% | 56.8%
C[S+](=O)([O-])c1ccc(-c2cnc(N)c(C(=O)Nc3ccccc3)n2)cc1 | 99.6% | 98.3% | 115% | 107% | 123% | 106% | 127% | 110% | 95.2% | 23.7% | 20.2% | 99.1% | 87.6% | 90.7% | 105% | 107% | 133% | 129% | 119% | 103% | 33.1% | 25.3% | 98.5% | 103% | 98.5% | 99.6% | 96.2% | 111% | 99.8% | 105% | 82.7% | 16% | 15.4%
CN1\N=C(N)/C2=C[N]([C@@H]3O[C@H](CO[P](O)(O)=O)[C@@H](O)[C@H]3O)C4=C2C1=NC=N4 | 77.9% | 79.8% | 42.7% | 45.6% | 38% | 25.8% | 13.2% | 8.14% | 4.15% | 2.69% | 2.9% | 107% | 109% | 63.8% | 65.2% | 50.3% | 35.3% | 16.7% | 7.7% | 6.79% | 3.71% | 3.23% | 88.7% | 76% | 40% | 38.9% | 21.1% | 13.4% | 8.31% | 6.58% | 4.28% | 3.22% | 2.94%
